Assay results from patent US7138361B2, “Herbicidal heterocycles” (E. I. du Pont de Nemours and Company, priority 2000, dated 2006).

What was measured:
Type in all cases: in vivo
[1] = test system: Sunflower; assay: Test C preemergence; conditions: Rate 500 g/ha, visual evaluation after 12 to 14 days
[2] = test system: velvetleaf (Abutilon theophrasti); assay: Test B postemergence; conditions: Rate 500 g/ha, scale 0 to 100, 0 is no effect, 100 is complete control, 13 to 15 days
Procedure, shortened: (§1)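 Ratings on a 0 to 100 visual scale (100 complete control) compare treated plants with controls 13 to 15 days after application. Treatments were pre- or postemergence sprays of compound in non-phytotoxic solvent with surfactant.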

[3] = test system: morning glory (Ipomoea hederacea); assay: Test B postemergence; conditions: Rate 500 g/ha, scale 0 to 100, 0 is no effect, 100 is complete control, 13 to 15 days
Procedure, shortened: as §1

[4] = test system: barnyardgrass (Echinochloa crus-galli); assay: Test B postemergence; conditions: 13 to 15 days
Procedure, shortened: as §1

[5] = test system: lambsquarters (Chenopodium album); assay: Test B postemergence; conditions: Rate 500 g/ha, scale 0 to 100, 0 is no effect, 100 is complete control, 13 to 15 days
Procedure, shortened: as §1

[6] = test system: giant foxtail (Setaria faberii); assay: Test B postemergence; conditions: 13 to 15 days
Procedure, shortened: as §1

[7] = test system: wild oat (Avena fatua); assay: Test B postemergence; conditions: Rate 500 g/ha, scale 0 to 100, 0 is no effect, 100 is complete control, 13 to 15 days
Procedure, shortened: as §1

[8] = test system: Surinam grass (Brachiaria decumbens); assay: Test B postemergence; conditions: 13 to 15 days
Procedure, shortened: as §1

[9] = test system: pigweed (Amaranthus retroflexus); assay: Test B postemergence; conditions: Rate 500 g/ha, scale 0 to 100, 0 is no effect, 100 is complete control, 13 to 15 days
Procedure, shortened: as §1

[10] = test system: corn (Zea mays); assay: Test B postemergence; conditions: 13 to 15 days
Procedure, shortened: as §1

[11] = test system: cocklebur (Xanthium strumarium); assay: Test B postemergence; conditions: 13 to 15 days
Procedure, shortened: as §1

[12] = test system: crabgrass (Digitaria sanguinalis); assay: Test B postemergence; conditions: 13 to 15 days
Procedure, shortened: as §1

[13] = test system: blackgrass (Alopecurus myosuroides); assay: Test B postemergence; conditions: 13 to 15 days
Procedure, shortened: as §1

[14] = test system: wheat (Triticum aestivum); assay: Test B postemergence; conditions: Rate 500 g/ha, scale 0 to 100, 0 is no effect, 100 is complete control, 13 to 15 days
Procedure, shortened: as §1

[15] = test system: velvetleaf (Abutilon theophrasti); assay: Test B preemergence
Procedure, shortened: as §1

[16] = test system: morning glory (Ipomoea hederacea); assay: Test B preemergence
Procedure, shortened: as §1

[17] = test system: barnyardgrass (Echinochloa crus-galli); assay: Test B preemergence
Procedure, shortened: as §1

[18] = test system: lambsquarters (Chenopodium album); assay: Test B preemergence
Procedure, shortened: as §1

[19] = test system: giant foxtail (Setaria faberii); assay: Test B preemergence
Procedure, shortened: as §1

[20] = test system: Surinam grass (Brachiaria decumbens); assay: Test B preemergence
Procedure, shortened: as §1

[21] = test system: pigweed (Amaranthus retroflexus); assay: Test B preemergence
Procedure, shortened: as §1

[22] = test system: corn (Zea mays); assay: Test B preemergence
Procedure, shortened: as §1

[23] = test system: cocklebur (Xanthium strumarium); assay: Test B preemergence
Procedure, shortened: as §1

[24] = test system: crabgrass (Digitaria sanguinalis); assay: Test B preemergence
Procedure, shortened: as §1

[25] = test system: rice (Oryza saliva); assay: Test B preemergence
Procedure, shortened: as §1

[26] = test system: smallflower flatsedge (Cyperus difformis); assay: Test C flooded paddy test; conditions: for Flatsedge plant response rating: Flooded Paddy, scale 0 to 100, 0 no effect, 100 complete control; for Plant response rating, Flatsedge: flooded paddy test, scale 0 to 100 (0 no effect, 100 complete control)
Procedure, shortened: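 Ratings come from visual comparison with control plants after 12 to 14 days in the greenhouse. Each species was at the 2-leaf stage when the flooded paddy was treated. Scores run from 0, meaning no effect, to 100, meaning complete control.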

[27] = test system: Nightshade; assay: Test C preemergence; conditions: Rate 500 g/ha, visual evaluation after 12 to 14 days
[28] = Rate 125 g/ha, scale 0 (no effect) to 100 (complete control)
[29] = Rate 500 g/ha, scale 0 to 100, 0 is no effect, 100 is complete control
[30] = Preemergence, Rate 500 g/ha, scale 0 to 100, 0 no effect, 100 complete control
[31] = preemergence, Rate 125 g/ha, scale of 0 to 100 where 0 is no effect and 100 is complete control, 13 to 15 days

CCCC(C)c1ccn(C2SCN(c3cccc(C(F)(F)F)c3)C2=O)n1 (stereo not drawn) [Compound 92]
10: Plant response rating, Surinam grass [8, 29] | Plant response rating, Corn [10, 29] | Plant response rating, Crabgrass [12, 28]
30: Plant response rating, Foxtail, Giant [6, 29] | Plant response rating, Barnyardgrass [17, 31]
60: Plant response rating, Pigweed [9]
90: Plant response rating, Lambsquarters [5] | Plant response rating, Flatsedge ([26]; Rate 62 g/ha)
55: Plant response rating (0 to 100), Sunflower [1]
80: Plant response rating, Cocklebur [11, 29] | Plant response rating, Pigweed [21, 31] | Plant response rating (0 to 100), Nightshade [27]
0: Plant response rating, Barnyardgrass [4, 28] | Plant response rating, Foxtail, Giant [6, 28] | Plant response rating, Wild Oat [7] | Plant response rating, Surinam grass [8, 28] | Plant response rating, Corn [10, 28] | Plant response rating, Blackgrass [13, 28] | Plant response rating, Blackgrass [13, 29] | Plant response rating, Wheat [14] | Plant response rating, Velvetleaf [15, 30] | Plant response rating, Velvetleaf [15, 31] | Plant response rating, Morningglory [16, 30] | Plant response rating, Morningglory [16, 31] | Plant response rating, Surinam grass [20, 31] | Plant response rating, Corn [22, 30] | Plant response rating, Corn [22, 31] | Plant response rating, Cocklebur [23, 30] | Plant response rating, Cocklebur [23, 31] | Plant response rating, Rice [25, 30] | Plant response rating, Rice [25, 31]
20: Plant response rating, Velvetleaf [2] | Plant response rating, Cocklebur [11, 28]
50: Plant response rating, Morningglory [3] | Plant response rating, Crabgrass [12, 29] | Plant response rating, Foxtail, Giant [19, 31] | Plant response rating, Crabgrass [24, 31]
70: Plant response rating, Barnyardgrass [4, 29] | Plant response rating, Surinam grass [20, 30]
100: Plant response rating, Barnyardgrass [17, 30] | Plant response rating, Lambsquarters [18, 30] | Plant response rating, Lambsquarters [18, 31] | Plant response rating, Foxtail, Giant [19, 30] | Plant response rating, Pigweed [21, 30] | Plant response rating, Crabgrass [24, 30] | Flatsedge plant response rating ([26]; Rate 250 g/ha) | Flatsedge plant response rating ([26]; Rate 500 g/ha) | Plant response rating, Flatsedge ([26]; Rate 125 g/ha)

CC(C)(C)c1ccn(C2CCN(c3cccc(SC(F)(F)F)c3)C2=O)n1 (stereo not drawn) [Compound 93]
20: Plant response rating (0 to 100), Sunflower [1] | Plant response rating, Pigweed [9] | Plant response rating, Foxtail, Giant [19, 31] | Plant response rating, Crabgrass [24, 31]
50: Plant response rating, Cocklebur [11, 29]
0: Plant response rating, Barnyardgrass [4, 28] | Plant response rating, Barnyardgrass [4, 29] | Plant response rating, Foxtail, Giant [6, 28] | Plant response rating, Foxtail, Giant [6, 29] | Plant response rating, Wild Oat [7] | Plant response rating, Surinam grass [8, 28] | Plant response rating, Surinam grass [8, 29] | Plant response rating, Corn [10, 28] | Plant response rating, Corn [10, 29] | Plant response rating, Crabgrass [12, 28] | Plant response rating, Crabgrass [12, 29] | Plant response rating, Blackgrass [13, 28] | Plant response rating, Blackgrass [13, 29] | Plant response rating, Wheat [14] | Plant response rating, Velvetleaf [15, 30] | Plant response rating, Velvetleaf [15, 31] | Plant response rating, Morningglory [16, 30] | Plant response rating, Morningglory [16, 31] | Plant response rating, Barnyardgrass [17, 31] | Plant response rating, Surinam grass [20, 31] | Plant response rating, Pigweed [21, 31] | Plant response rating, Corn [22, 30] | Plant response rating, Corn [22, 31] | Plant response rating, Cocklebur [23, 30] | Plant response rating, Cocklebur [23, 31] | Plant response rating, Rice [25, 30] | Plant response rating, Rice [25, 31] | Plant response rating, Flatsedge ([26]; Rate 62 g/ha)
90: Plant response rating, Foxtail, Giant [19, 30]
10: Plant response rating, Velvetleaf [2] | Plant response rating, Morningglory [3] | Plant response rating (0 to 100), Nightshade [27]
100: Plant response rating, Barnyardgrass [17, 30] | Plant response rating, Lambsquarters [18, 30] | Plant response rating, Crabgrass [24, 30] | Flatsedge plant response rating ([26]; Rate 250 g/ha) | Flatsedge plant response rating ([26]; Rate 500 g/ha) | Plant response rating, Flatsedge ([26]; Rate 125 g/ha)
30: Plant response rating, Cocklebur [11, 28]
80: Plant response rating, Lambsquarters [5] | Plant response rating, Pigweed [21, 30]
70: Plant response rating, Surinam grass [20, 30]
60: Plant response rating, Lambsquarters [18, 31]
